In patent US20090227816A1, “Process for preparing polybrominated compounds” (BROMINE COMPOUNDS LTD., priority 2006, published 2009):

Assay type: physicochemical
Protocol: The solubility of Deca in bromine was determined as 2.64 g Deca in 100 g bromine at 20° C.

SMILES: Brc1c(Br)c(Br)c(Oc2c(Br)c(Br)c(Br)c(Br)c2Br)c(Br)c1Br [Deca, decabromodiphenyl ether]
- solubility of Deca in bromine: 2.64 g Deca in 100 g bromine
